Source: patent US20220031800A1, “PEPTIDES FOR TREATING NON-EXUDATIVE MACULAR DEGENERATION AND OTHER DISORDERS OF THE EYE” (Allegro Pharmaceuticals, LLC, priority 2019, published 2022)
Square brackets hold non-standard residues; d marks the D form. Peptide text beside a SMILES is read from it. Cya = N[C@@H](CS(=O)(=O)O)C(=O)O

Experiments:
[1] = test system: study eye of subjects with intermediate non-exudative AMD; experiment: Humphrey visual field assessment (mean deviation, pattern standard deviation); assay type: in vivo, human
Description: Twenty-five subjects were assigned to Group 1 and fifteen (15) subjects were assigned to Group 2.

OIR mouse retina = experiment: RNA-seq gene expression in OIR mouse retina after intravitreal injection; assay type: in vivo; conditions: 10 μg/1 μL single intravitreal injection
Description: Purpose: This study used RNA-seq to identify the genes regulated in the mouse retina following risuteganib intravitreal injection. Analysis of the specific genes regulated by risuteganib enables identification of biological processes and pathways modulated by the oligopeptide. […] Risuteganib causes reduced leukocyte attachment, reduced leukocyte trans-endothelial migration and reduced expression of complement 3 receptor. Methods: OIR mouse pups received 5 days of hyperoxia (75% O2) to obliterate developing retinal vessels. Following their return to room air, retinal neovascularization develops due to an imbalance in oxygen supply and demand. At the time of return to room air, both eyes of OIR pups received either vehicle injection or a single intravitreal injection of risuteganib solution at concentration of 10 μg/1 μL. A separate group of pups raised at room air served as control and received either vehicle or risuteganib solution injection consistent with the OIR mouse group. 5 days after injection, at the height of retinal neovascularization in OIR mice, all mice are sacrificed, retina tissue extracted for RNA isolation and RNA-seq. The generated reads were then aligned to the mouse reference genome/transcriptome and gene expression quantified for differential expression analysis and fold change calculation. The list of regulated genes was then submitted to identify biological processes and pathways that are regulated after risuteganib exposure compared to vehicle control in OIR mice or control mice, and in OIR retina compared to control retina that both received vehicle injections.

[2] = test system: human retinal Müller cells (MIO-M1); experiment: Mitochondrial membrane potential (JC-1) in human Müller cells (MIO-M1); assay type: cell-based; conditions: 1× of 1 mg/50 μL, 24 hours; normalized to untreated control as 100%
Description: Purpose: To determine the effects of risuteganib on the mitochondrial membrane potential (ΔΨm) in cultured human retinal Müller cells (MIO-M1). Loss of ΔΨm is a marker for early cell death.
Methods: The immortalized human retinal Müller cell line (MIO-M1) was obtained from the Department of Cell Biology of the University College, London. Cells were cultured in Dulbecco's Modified Eagle's Medium (DMEM) and plated in 24-well plates for 24 hours before treatment with 1× concentration of 1 mg/50 μL risuteganib, ranibizumab, bevacizumab, or aflibercept. Dosage was based on clinical dose of each compound. The experiments were repeated 3 times with 6 replicates each. After 24 hours drug treatment, the ΔΨm was measured using the JC-1 kit, a cationic dye that fluoresces red within the mitochondria of healthy, live cells. In the stressed or apoptotic cells, the mitochondrial membrane potential collapses and the cationic dye fluoresces green. First, cells were rinsed with fresh media and then incubated with the JC-1 reagent for 15 minutes at 37 degrees C. The dyes were then removed, and phosphate buffered saline was added to each well. The Red fluorescence (live cells) was read at EX 550 nm and EM 600 nm. The Green fluorescence (apoptotic cells) was read at EX 483 nm and EM 535 nm. The changes in ΔΨm were calculated by the ratio of red to green fluorescence. […]

primary human RPE cells [3] = experiment: ROS level (CM-H2DCFDA) in primary human RPE cells exposed to hydroquinone; assay type: cell-based; conditions: 0.4 mM risuteganib co-treatment with HQ 125-180 uM
Description: (§1) Purpose: To determine if risuteganib protects against hydroquinone (HQ)-mediated cell injury, elevated ROS level and reduced mitochondrial membrane potential (Δψm) in cultured human RPE cells. Elevated ROS levels increase oxidative stress in the cells, leading to reduced cell health and cell death. Loss of ΔΨm is a marker for early cell death. Methods: Primary human RPE cells were seeded on collagen-coated 96-well plates in triplicates at 8K, 10K and […] cells/well, respectively. Cells reached 80% to 100% confluence 24 hours after plating, and confluent cells were then grown for an additional 4 or 5 days until growth was density arrested. On day 6 after plating, cells in the plate upper half were loaded with 20 μM CM-H2DCFDA (measures ROS level) and in the plate lower half with 10 μM JC-1 (measures Δψm) for 30 minutes at 37° C. […] For the ROS and Δψm assays, a fluorescence plate reader was used to quantify ROS production (490-nm excitation, 522-nm emission), and green monomer of JC-1 (490-nm excitation, 522-nm emission) and red JC-1 aggregate (535-nm excitation, 590-nm emission), respectively. […] The WST reagent was quantified with a plate reader at 440 nm and a reference wavelength at 690 nm. Data were normalized to untreated control as 100% and were expressed as the mean±SD.

primary human RPE cells [4] = experiment: Mitochondrial membrane potential (JC-1) in primary human RPE cells exposed to hydroquinone; assay type: cell-based; conditions: 0.4 mM risuteganib co-treatment with HQ 125-180 uM
Description: as §1

[5] = Week 12, Group 2 (1 mg IVT day 1 + wk 16)
[6] = Week 12, risuteganib group (1 mg IVT day 1 + wk 16)
[7] = Week 12 change, risuteganib group (1 mg IVT day 1 + wk 16)
[8] = Week 32, Group 1 crossover (sham day 1, 1 mg IVT wk 16)
[9] = Week 32, Group 2 (1 mg IVT day 1 + wk 16)
[10] = Week 32, risuteganib group (1 mg IVT day 1 + wk 16)
[11] = Week 32, sham group after crossover to 1 risuteganib injection (wk 16)
[12] = Week 32 change, Group 1 crossover (sham day 1, 1 mg IVT wk 16)
[13] = Week 32 change, Group 2 (1 mg IVT day 1 + wk 16)
[14] = Week 32 change, risuteganib group (1 mg IVT day 1 + wk 16)
[15] = Week 32 change, sham group after crossover to 1 risuteganib injection (wk 16)

C[C@@H](O)[C@H](NC(=O)[C@H](CS(=O)(=O)O)NC(=O)CNC(=O)[C@H](CCCNC(=N)N)NC(=O)CN)C(=O)N1CCC[C@H]1C(=O)O [risuteganib, Glycyl-L-arginylglycyl-3-sulfo-L-alanyl-L-threonyl-L-proline] (H-GRG[Cya]TP-OH)
Humphrey visual field pattern standard deviation, mean [1, 5]: 3.350 dB | Humphrey visual field pattern standard deviation, median [1, 5]: 1.630 dB | Humphrey visual field mean deviation, mean [1, 6]: −5.502 dB | Humphrey visual field mean deviation, median [1, 6]: −3.500 dB | Humphrey visual field pattern standard deviation change, median ([1]; Week 12 change, Group 2 (1 mg IVT day 1 + wk 16)): −0.090 dB | Humphrey visual field mean deviation change, mean [1, 7]: 0.302 dB | Humphrey visual field mean deviation change, median [1, 7]: 0.100 dB | Humphrey visual field pattern standard deviation, mean [1, 8]: 2.790 dB | Humphrey visual field pattern standard deviation, median [1, 8]: 2.410 dB | Humphrey visual field pattern standard deviation, mean [1, 9]: 3.113 dB | Humphrey visual field pattern standard deviation, median [1, 9]: 2.050 dB | Humphrey visual field mean deviation, mean [1, 10]: −5.211 dB | Humphrey visual field mean deviation, median [1, 10]: −3.470 dB | Humphrey visual field mean deviation, mean [1, 11]: −4.055 dB | Humphrey visual field mean deviation, median [1, 11]: −2.260 dB | Humphrey visual field pattern standard deviation change, mean [1, 12]: 0.469 dB | Humphrey visual field pattern standard deviation change, median [1, 12]: 0.360 dB | Humphrey visual field pattern standard deviation change, mean [1, 13]: 0.115 dB | Humphrey visual field pattern standard deviation change, median [1, 13]: 0.045 dB | Humphrey visual field mean deviation change, mean [1, 14]: 0.191 dB | Humphrey visual field mean deviation change, median [1, 14]: −0.040 dB | Humphrey visual field mean deviation change, mean [1, 15]: 0.158 dB | Humphrey visual field mean deviation change, median [1, 15]: −0.070 dB | Number of genes regulated in the OIR retina with statistical significance (OIR mouse retina; 5 days after injection, vs vehicle): around 600 genes | Expression of integrin subunits α5, α6, αM, β1, β2, and β5 (OIR mouse retina; OIR retina, 5 days after injection): down regulated | Number of biological pathways down-regulated (OIR mouse retina; OIR retina, 10 of them up-regulated in OIR retina): 11 | Mitochondrial membrane potential (ΔΨm, red/green JC-1 ratio) [2]: 109.3±4.91 | Reduction of HQ-induced ROS production (primary human RPE cells [3]): 61% | Improvement of HQ-reduced Δψm (primary human RPE cells [4]): 16%
